The values below come from DBAASP.

The structures appear in SMILES notation. Values after ≈ are worked out from the molar mass of the structure shown.

Holding throughout (test): ≥ marks a high value that may be exact or a test limit, other limits are often not marked, values filed in µg/mL are converted to µM
In experiment [1] the test system is Acinetobacter baumannii.
For experiment [2], the system named is Escherichia coli ATCC 25922.
Experiment [3] concerns Klebsiella pneumoniae ATCC 700603.
Experiment [4] concerns Pseudomonas aeruginosa ATCC 9027.
Experiment [5] relates to Staphylococcus aureus ATCC 25923.
In experiment [6] the test system is Candida albicans ATCC 2002.
Experiment [7] has as its system Staphylococcus aureus ATCC 2592.
The test system of experiment [8] is Bacillus subtilis ATCC 6633.
In experiment [9] the test system is Bacillus subtilis 168.
The test system of experiment [10] is Escherichia coli B.
In experiment [11] the test system is Pseudomonas aeruginosa.
For experiment [12], the system named is Staphylococcus aureus.

In general, MIC refers to the lowest concentration that inhibits growth of the organism. A low value points to a more susceptible organism. As for `CC[C@H](C)[C@H](NC(=O)[C@H](C)N)C(=O)N[C@@H](CC(C)C)C(=O)N[C@@H](CCCN=C(N)N)C(=O)N[C@@H](CCCCN)C(=O)N[C@@H](C)C(=O)N[C@H](C(=O)N[C@@H](CCCN=C(N)N)C(=O)N[C@@H](CCCN=C(N)N)C(=O)N[C@@H](CC(C)C)C(=O)N[C@H](C(=O)N[C@@H](CCCCN)C(=O)N[C@@H](CC(C)C)C(=O)N[C@H](C(=O)N[C@H](C(N)=O)C(C)C)[C@@H](C)CC)C(C)C)[C@@H](C)O` [AILRKATRRLVKLIV], the MIC in experiment [1] is 6.25 µM (≈ 10.9 µg/mL); in experiment [2] it was 20 µM (≈ 35 µg/mL); in experiment [3], more than 25 µM; in experiment [4], 20 µM (≈ 35 µg/mL); in [5], more than 25 µM.

For the molecule `CC[C@H](C)[C@H](NC(=O)CNC(=O)CNC(=O)[C@H](C)NC(=O)[C@H](CCCCN)NC(=O)[C@H](C)N)C(=O)NCC(=O)NCC(=O)N[C@@H](Cc1cnc[nH]1)C(=O)N[C@H](C(=O)N[C@H](C(=O)NCC(=O)N[C@@H](CCC(N)=O)C(=O)N[C@H](C(=O)N[C@H](C(=O)NCC(=O)N[C@H](C(=O)N[C@@H](CCCN=C(N)N)C(=O)N[C@H](C(=O)N[C@@H](CCCN=C(N)N)C(=O)NCC(=O)N[C@@H](CC(C)C)C(=O)NCC(=O)NCC(=O)N[C@@H](CC(N)=O)C(=O)N[C@H](C(=O)O)C(C)C)[C@@H](C)CC)C(C)C)C(C)C)[C@@H](C)CC)[C@@H](C)CC)C(C)C` [AKAGGIGGHVIGQIVGVRIRGLGGNV], the MIC in [6] came to 20.4 µM (≈ 50 µg/mL); in experiment [2], 20.4 µM (≈ 50 µg/mL); in [7], 2.57 µM (≈ 6.3 µg/mL).

On to `CC[C@H](C)[C@H](NC(=O)[C@H](CCCN=C(N)N)NC(=O)[C@@H](NC(=O)[C@@H]1CCCN1C(=O)[C@@H](NC(=O)[C@@H](NC(=O)[C@H](CCC(N)=O)NC(=O)[C@@H]1CCCN1C(=O)[C@@H](NC(=O)[C@@H](NC(=O)[C@H](Cc1cnc[nH]1)NC(=O)[C@@H]1CCCN1C(=O)[C@@H]1CCCN1C(=O)[C@@H](NC(=O)CNC(=O)CNC(=O)[C@H](C)NC(=O)[C@H](CCCCN)NC(=O)[C@H](C)N)[C@@H](C)CC)C(C)C)[C@@H](C)CC)[C@@H](C)CC)C(C)C)C(C)C)C(=O)N[C@@H](CCCN=C(N)N)C(=O)N1CCC[C@H]1C(=O)N[C@@H](CC(C)C)C(=O)N[C@@H](CS)C(=O)NCC(=O)N[C@@H](CC(N)=O)C(=O)N[C@H](C(=O)O)C(C)C` [AKAGGIPPHVIPQIVPVRIRPLCGNV], for which the MIC was 9.25 µM (≈ 25 µg/mL) in [6], 18.5 µM (≈ 50 µg/mL) in experiment [2] and 4.66 µM (≈ 12.6 µg/mL) in experiment [7].

On to `CC[C@H](C)[C@H](NC(=O)[C@H](CCCCN)NC(=O)[C@@H]1CCCN1C(=O)[C@H](CC(C)C)NC(=O)[C@@H](NC(=O)[C@H](CO)NC(=O)CNC(=O)[C@H](CC(C)C)NC(=O)[C@H](C)NC(=O)CNC(=O)[C@H](CC(C)C)NC(=O)[C@@H](NC(=O)[C@H](CC(C)C)NC(=O)[C@@H]1CCCN1C(=O)[C@H](Cc1ccccc1)NC(=O)[C@@H](N)Cc1ccccc1)C(C)C)[C@@H](C)CC)C(=O)N[C@@H](Cc1ccccc1)C(N)=O` [FFPLVLGALGSILPKIF], for which the results for the MIC in experiment [8] and in [7] were 5.46 µM (≈ 9.99 µg/mL) and 10.9 µM (≈ 20 µg/mL), respectively.

In the case of `CC[C@H](C)[C@@H]1NC(=O)[C@H](CO)NC(=O)[C@H](CCCCN)NC(=O)[C@H]([C@@H](C)O)NC(=O)[C@H](Cc2c[nH]c3ccccc23)NC(=O)[C@@H](NC(=O)CN)CSSC[C@@H](C(=O)N[C@@H](Cc2ccccc2)C(=O)O)NC(=O)[C@@H]2CCCN2C(=O)[C@H](CCCCN)NC(=O)[C@@H]2CCCN2C(=O)[C@@H]2CCCN2C1=O` [GCWTKSIPPKPCF], in [7], the minimal inhibitory concentration (MIC) was 2.22 µM (≈ 3.25 µg/mL).

`CC[C@H](C)[C@H](NC(=O)[C@H](Cc1cnc[nH]1)NC(=O)[C@H](CCCCN)NC(=O)[C@H](CC(C)C)NC(=O)[C@H](CC(C)C)NC(=O)[C@H](CO)NC(=O)[C@H](CCSC)NC(=O)[C@H](Cc1c[nH]c2ccccc12)NC(=O)[C@H](CCCCN)NC(=O)CN)C(=O)N[C@@H](Cc1c[nH]c2ccccc12)C(=O)N[C@@H](CCCCN)C(N)=O` [GKWMSLLKHIWK]: the MIC in experiment [9] was 1.3 µM (≈ 1.98 µg/mL); in experiment [10], 5 µM (≈ 7.63 µg/mL); in experiment [11], 25 µM (≈ 38.1 µg/mL); in [12], 12.2 µM (≈ 18.6 µg/mL).

For `CC[C@H](C)[C@H](NC(=O)[C@H](CCCCN)NC(=O)[C@H](CO)NC(=O)[C@H](Cc1c[nH]c2ccccc12)NC(=O)[C@H](CCSC)NC(=O)CN)C(=O)N[C@@H](CC(C)C)C(=O)NCC(=O)N[C@@H](Cc1cnc[nH]1)C(=O)N[C@@H](CC(C)C)C(=O)N[C@@H](CCCCN)C(=O)N[C@@H](CCCN=C(N)N)C(N)=O` [GMWSKILGHLKR], the MIC came out at 2.2 µM (≈ 3.13 µg/mL) in [9], 28.3 µM (≈ 40.3 µg/mL) in [10], 93 µM (≈ 133 µg/mL) in experiment [11] and 100 µM (≈ 142 µg/mL) in [12].

On to `CC[C@H](C)[C@H](NC(=O)[C@H](CC(C)C)NC(=O)[C@H](Cc1cnc[nH]1)NC(=O)[C@@H]1CCCN1C(=O)[C@H](CC(C)C)NC(=O)[C@@H](NC(=O)[C@H](CCCCN)NC(=O)[C@H](CO)NC(=O)[C@H](Cc1c[nH]c2ccccc12)NC(=O)[C@H](CCSC)NC(=O)CN)[C@@H](C)CC)C(=O)N[C@@H](CCCN=C(N)N)C(N)=O` [GMWSKILPHLIR], for which the MIC is 3.3 µM (≈ 4.78 µg/mL) in [9], 20 µM (≈ 29 µg/mL) in experiment [10], more than 100 µM in experiment [11] and more than 100 µM in experiment [12].

For the molecule `CC[C@H](C)[C@H](N)C(=O)N[C@@H](CC(C)C)C(=O)NCC(=O)N[C@@H](CCCCN)C(=O)N[C@H](C(=O)N[C@H](C(=O)N[C@@H](CCCCN)C(=O)N[C@H](C(=O)N[C@H](C(=O)N[C@@H](CCCCN)C(N)=O)C(C)C)C(C)C)[C@@H](C)CC)[C@@H](C)CC` [ILGKIIKVVK], the MIC in [9] was not below 40 µM; in experiment [10] it was not below 40 µM; in [11], more than 100 µM; in experiment [12], more than 100 µM.

Consider `CC[C@H](C)[C@H](NC(=O)[C@H](CCCCN)NC(=O)[C@H](CCCCN)NC(=O)[C@H](Cc1c[nH]c2ccccc12)NC(=O)[C@H](CC(N)=O)NC(=O)[C@@H](N)C(C)C)C(=O)N[C@@H](CC(C)C)C(=O)NCC(N)=O` [VNWKKILG], for which the MIC in experiment [9] was not below 200 µM; in [10] it was not below 100 µM; in experiment [11], more than 100 µM; in experiment [12], more than 100 µM.

Turning to `CC[C@H](C)[C@H](NC(=O)[C@H](CC(C)C)NC(=O)[C@H](Cc1cnc[nH]1)NC(=O)CNC(=O)[C@H](CC(C)C)NC(=O)[C@@H](NC(=O)[C@H](CCCCN)NC(=O)[C@H](CO)NC(=O)[C@@H](N)Cc1c[nH]c2ccccc12)[C@@H](C)CC)C(=O)N[C@@H](CCCN=C(N)N)C(N)=O` [WSKILGHLIR], the MIC was 18.3 µM (≈ 22.4 µg/mL) in experiment [9], not below 100 µM in [10], more than 100 µM in [11] and more than 100 µM in [12].
